Assay results published in patent publication US20110206739A1, “COMPOSITIONS AND METHODS FOR THE PREPARATION OF NANOEMULSIONS” (UNIVERSITY OF MASSACHUSETTS, priority 2008, published 2011).
Values belong to the molecule of their own block, whether it stands above or below them.

Experiments:
[1] = Stability of Coumarin preparations over several days stored at room temperature (size, PDI); assay type: physicochemical; conditions: for Size: in nm (unit assumed)
From the text: The fluorescence intensity of a Coumarin 6 nanoemulsion can be increased by adding a polysaccharide polymer such as dextran to the SANE formulation. As described in Example 2, the fluorescent dye Coumarin 6 SANE composition can optionally comprise dextran to increase fluorescence intensity of the SANE dye composition. Example 2 describes preparation of Coumarin 6 SANE dye formulations with and without the addition of the polymer dextran. Example 2 also describes measured particle size, stability and fluorescence intensity determined in samples of (a) DMSO coumarin 6 preparation, (b) nanoemulsion of coumarin 6 preparation without dextran, and (c) nanoemulsion of coumarin 6 with dextran.
As shown by the data in Table 2 is that over a 3 day period, these SANE preparations of Coumarin 6 were stable (determined by particle size changes) at room temperature for at least 3 days compared to the DMSO coumarin 6 preparation.
(§1) Particle sizes of all the formulations indicated in the Examples below were measured by dynamic laser light scattering, also called Photon correlation spectroscopy, using the Malvern Zetasizer-S instrument (Malvern Instruments Inc., Southborough Mass.). Each sample was diluted immediately before measurement with distilled water to avoid multiple light scattering effects. […] The particle diffusion (translational diffusion) due to Brownian motion was measured in the instrument and related to the size of the parameter. The mean hydrodynamic diameter (DH) was calculated from the Strokes-Einstein equation. The range of particle sizes which can be measured by the Zetasizer is from 0.6 to 6000 nm.

[2] = test system: melanoma cancer cells (Malme-3M); test: 5-FU Cell Proliferation Assay (MTS Assay); assay type: cell-based, human; conditions: 24 μM, compared with 5-FU nanoemulsion
Method: The in vitro activity of the 5-FU nanoemulsion was measured against three cancer cell lines (CCL-221, Malme-3M, and CCL-2) using a Cell Proliferation Assay (MTS Assay). The MTS Assay uses a tetrazolium compound (MTS) and an electron coupling reagent (PES) was purchased from Fisher Scientific (Pittsburgh, Pa.). The tetrazolium compound (MTS) can be bioreduced into a colored formazan product by dehydrogenase enzymes in metabolic cells. Formazan is a water-soluble compound and can be dissolved in the culture medium, the quantity of formazan product as measured by the absorbance at 490 nm was directly proportional to the number of living cells in culture.
After incubation for 5 hours, the cells were attached to the bottom of the well and the diluted nanoemulsions were then added and incubated for 48 hours. Subsequently, the media were removed by aspiration and 100 microliter of fresh phenol free cell culture media was pipetted followed by adding 20 microliter of MTS reagent into each well. The plate was incubated for 2 hours at 37 degrees C. in a humidified, 5% CO2 atmosphere and the 96-well plate reader was used to measure the absorbance at 490 nm. The 5-FU nanoemulsions prepared in this study had 20 nm average particle size.

[3] = Particle size by dynamic laser light scattering (Malvern Zetasizer-S); assay type: physicochemical
Method: Unless otherwise indicated, “average particle size” refers to the z-average particle or droplet diameter measured by dynamic laser light scattering, also called Photon correlation spectroscopy (e.g., using the Malvern Zetasizer-S instrument, Malvern Instruments Inc., Southborough Mass.). Unless otherwise indicated, the z-average particle sizes were determined using the Malvern Zetasizer-S instrument with a 4 mW He—Ne laser operating at a wavelength of 633 nm and an avalanche photodiode detector (APD). The z-average diameter is the mean hydrodynamic diameter and the polydispersity index is an estimate of the width of the distribution. Both z-average diameter and polydispersity index (“PDI”) are calculated according to the International Standard on dynamic light scattering, ISO13321.
as §1, with “Mass.).” for “Mass.). Each sample was diluted immediately before measurement with distilled water to avoid multiple light scattering effects.”

PL-45 cells = test: Paclitaxel growth inhibition, 48 hours; assay type: cell-based, human; conditions: PL-45, after 48 hours of treatment
Method: FIG. 16C is a graph showing dose-dependant anti cancer activity of paclitaxel in DMSO and paclitaxel in a nanoemulsion made up of rice bran oil and Solutol® HS15 against PL-45 cells after 48 hours of treatment. The graphs indicate a 44% and 40% growth inhibition when treated with paclitaxel in DMSO and paclitaxel in nanoemulsion respectively. […] The error bars represent the standard error of mean for experiments done in duplicates.

CCL-221 cells = test: Paclitaxel growth inhibition, 48 hours; assay type: cell-based, human; conditions: CCl-221, after 48 hours of treatment
From the text: (§2) The graphs indicate a 60% and 52% growth inhibition when treated with paclitaxel in DMSO and paclitaxel in nanoemulsion respectively. […] The error bars represent the standard error of mean for experiments done in duplicates.

P10.05 cells = test: Paclitaxel growth inhibition, 48 hours; assay type: cell-based, human; conditions: P10.05, after 48 hours of treatment
From the text: as §2

[4] = Electrokinetic potential (zeta potential); assay type: physicochemical; conditions: at 10 mv
Method: The electrokinetic potential (“Zeta-potential”) of the curcumin nanoemulsion was measured (FIG. 10A) and compared to the corresponding electrokinetic potential for curcumin in water (FIG. 10B). The zeta potential of a colloidal system corresponds to the electric potential in the interfacial double layer (DL) at the location of the slipping plane versus a point in the bulk fluid away from the interface (i.e., the potential difference between the dispersion medium and the stationary layer of fluid attached to the dispersed particle). For small particles (e.g., nanoemulsions) a higher zeta potential corresponds to greater stability of a colloidal dispersion, representing a greater degree of repulsion between adjacent particles in the dispersion to resist particle/droplet aggregation. A zeta potential of −23.5 (wall zeta potential of −50.3) was measured for the curcumin nanoemulsion (FIG. 10A), compared to a zeta wall potential at 10 mv of −2.53 for curcumin in water (FIG. 10B).

[5] = test system: Malme-3M melanoma cancer cells; test: Curcumin cell inhibition, MTS assay after 72 hrs; assay type: cell-based, human
Method: The curcumin nanoemulsion was prepared by combining gelatin and EMG-20 or gelatin and Solutol® HS15 in a 1:1 weight ratio. The cell inhibition activity of the blank nanoemulsion, a 30 micromolar DMSO-curcumin mixture, a 0.030 micromolar DMSO-curcumin mixture, and a 0.03 micromolar curcumin nanoemulsion were contacted with melanoma cancer cell lines.

Molecule: Coumarin 6 [DMSO COUMARIN]
- PDI ([1]; 0 hrs): 0.457
- Size ([1]; 0 hrs): 1373
- PDI ([1]; 72 hrs): 0.857
- Size ([1]; 72 hrs): 1373
- PDI ([1]; 96 hrs): 0.857
- Size ([1]; 96 hrs): 2142
- PDI ([1]; 120 hrs): 0.857
- Size ([1]; 120 hrs): 6000
- PDI ([1]; 144 hrs): 0.857
- Size ([1]; 144 hrs): 6000
- PDI ([1]; 240 hrs): 0.857
- Size ([1]; 240 hrs): 6000

Molecule: O=c1[nH]cc(F)c(=O)[nH]1 [non-encapsulation 5-FU, 5-fluorouracil]
- inhibition of cell proliferation [2]: not as effective

Molecule: COc1cc(/C=C/C(=O)CC(=O)/C=C/c2ccc(O)c(OC)c2)ccc1O [curcumin in DMSO, (1E,6E)-1,7-bis(4-hydroxy-3-methoxyphenyl)-1,6-heptadiene-3,5-dione]
- inhibition of melanoma cancer cell proliferation ([5]; 0.03 micromolar): efficacy against the melanoma cancer cells is lost
- inhibition of melanoma cancer cell proliferation ([5]; 30 micromolar): inhibited melanoma cancer cell proliferation

Second part, led by results:

- average particle (droplet) size, Z-average [3]: ≥ 1,000 nm
Molecule: CC(=O)O[C@H]1C(=O)[C@@]2(C)[C@H]([C@H](OC(=O)c3ccccc3)[C@]3(O)C[C@H](OC(=O)[C@H](O)[C@@H](NC(=O)c4ccccc4)c4ccccc4)C(C)=C1C3(C)C)[C@]1(OC(C)=O)CO[C@@H]1C[C@@H]2O [paclitaxel in DMSO, paclitaxel]
- growth inhibition (PL-45 cells): 44%
- growth inhibition (CCL-221 cells): 60%
- growth inhibition (P10.05 cells): 60%

- zeta wall potential [4]: −2.53
Molecule: COc1cc(/C=C/C(=O)CC(=O)/C=C/c2ccc(O)c(OC)c2)ccc1O [curcumin in water, (1E,6E)-1,7-bis(4-hydroxy-3-methoxyphenyl)-1,6-heptadiene-3,5-dione]
